In PMC8338929, “Acetylation turns leucine into a drug by membrane transporter switching” (Scientific Reports, 2021):

Target: T1, human MCT1 (SLC16A1) (Homo sapiens, UniProt P53985)
T1 construct: host or cells: MDCK-II
T1 sequence (P53985 1-500): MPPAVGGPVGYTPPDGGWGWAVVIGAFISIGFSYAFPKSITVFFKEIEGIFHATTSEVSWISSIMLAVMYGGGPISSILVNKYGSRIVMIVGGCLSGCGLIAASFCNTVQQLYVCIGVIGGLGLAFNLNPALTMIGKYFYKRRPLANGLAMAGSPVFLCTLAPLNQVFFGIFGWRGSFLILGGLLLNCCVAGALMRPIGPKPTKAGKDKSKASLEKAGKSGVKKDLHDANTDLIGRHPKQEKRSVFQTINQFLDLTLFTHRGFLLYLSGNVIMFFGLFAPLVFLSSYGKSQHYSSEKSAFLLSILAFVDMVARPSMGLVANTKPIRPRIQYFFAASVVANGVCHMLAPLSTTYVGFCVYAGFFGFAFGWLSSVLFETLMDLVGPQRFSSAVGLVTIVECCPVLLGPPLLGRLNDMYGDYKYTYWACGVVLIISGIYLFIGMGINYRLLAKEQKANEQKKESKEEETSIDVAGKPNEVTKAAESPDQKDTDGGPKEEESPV
Assay: MCT1-mediated cellular uptake in transfected MDCK-II cells
Type: cell-based
Details: 1 min, room temperature, Michaelis-Menten fit
Experimental: Transport studies with human PepT1 (SLC15A1), LAT1 (SLC7A5) and MCT1 (SLC16A1) were conducted in MDCK-II cells expressing the human transporter or control cells expressing a vector with Green Fluorescence Protein. Cells were transfected using a proprietary, transient transfection system (OPTI-EXPRESSION Technology, BioIVT). The results from the control cells were used to correct for substrate permeation by routes other than the transporter being investigated in the study. […] Specifically, Net Transporter Mediated Substrate Uptake (pmol/min/cm^2) = (Cellular accumulation in the presence of the transporter) − (Mean cellular accumulation in the absence of the transporter). MDCK-II cells were maintained in DMEM with low glucose and 10% FBS. Cells were used at passages up to 40 were seeded at 60,000 ± 10,000 cells/well on 96-well plates approximately 24 h before transfection, and transport assays were performed approximately 48 h after transfection. Transport studies in MDCK-II cells were conducted in 96-well insert plates with permeable membrane (0.4 µm) and receiver tray (Millipore MultiScreen Filter 96-well).
Transport studies with PepT1 were conducted in 96-well cell culture plate with wells containing a monolayer of MDCK-II cells grown on a permeable support and a corresponding 96-well receiver tray. Cell plates are maintained at 37 °C in 5% CO2 atmosphere prior to initiation of the transport experiment. Pre-incubation was conducted in HBSS, pH 7.4. The transport experiments were conducted in HBSS with Bis–Tris, pH 5.5, without phenol red. Both pre-incubation and incubation were conducted at 37 °C. All final assay solutions of probe substrate, reference inhibitor or test article contain 0.5% (v/v) DMSO (vehicle control). The culture plate insert […] was washed with warm HBSS three times and then blotted dry. The culture plate wells […] were washed with warm HBSS three times. […] Then a 30-µL sample was taken and mixed with 200 µL of scintillation fluid and scintillation counted (1450 Microbeta, Perkin-Elmer). […]

Vmax MCT1 uptake: 224
SMILES: CC(=O)N[C@@H](CC(C)C)C(=O)O [N-acetyl-L-leucine]
